Counter-ions that a name gives are not always drawn. ± gives the standard deviation of the averaged measurements. A value given as a limit tells only on which side of the number the result lay.

For 82 compounds, benchmark concentration results are on record in the supplement of paper PMC9151546.

The first test has as its system CHO-K1. Kind of test: benchmark concentration for 60% increase in hypodiploid frequency (BMC60); higher = less potent aneugen. To be noted: S9 metabolic activation: with S9. Here is the method:
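Benchmark concentration modelling (PROAST, Hill/exponential model families) of the 19-concentration flow-cytometric micronucleus assay in CHO-K1 cells, with and without rat liver S9. Only non-cytotoxic and adequate (relative survival >=40%) concentrations were used. BMR was a 30% increase in %MN (BMC30) or a 60% increase in %hypodiploid (BMC60) over control.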
`COC(=O)Nc1nc2ccccc2[nH]1` [Carbendazim] returned a benchmark concentration of 32 µM.

As to `CN(C)[C@@H]1C(=O)C(C(N)=O)=C(O)[C@@]2(O)C(=O)C3=C(O)c4c(O)cccc4[C@@](C)(O)[C@H]3[C@H](O)[C@@H]12` [Oxytetracycline hydrochloride], the benchmark concentration was determined as 110 µM.

Regarding `Nc1cc(Cl)cc(C(=O)O)c1Cl` [Chloramben], the benchmark concentration is 9.7 µM.

Staying with this test, now noted: S9 metabolic activation: without S9.
`CC(=O)Nc1ccc(O)cc1` [Acetaminophen] yielded a benchmark concentration of 36 µM.

The compound `CCCCOCCOCCO` [2-(2-Butoxyethoxy)ethanol] yielded a benchmark concentration of 100 µM.

In turn, `NC(=O)N1c2ccccc2C=Cc2ccccc21` [Carbamazepine] returned a benchmark concentration of 110 µM.

The compound `O=C(Nc1ccc(Cl)cc1)Nc1ccc(Cl)c(Cl)c1` [Triclocarban] yielded a benchmark concentration of under 4.5 µM.

Turning to `ClC1=C(Cl)C2(Cl)C3C(Cl)C(Cl)CC3C1(Cl)C2(Cl)Cl` (centres undefined) [Chlordane], the benchmark concentration stood at 54 µM.

`c1ccc2[nH]c(-c3cscn3)nc2c1` [Thiabendazole] yielded a benchmark concentration of 14.1 ± 7 µM.

`Oc1c(Cl)c(Cl)c(Cl)c(Cl)c1Cl` [Pentachlorophenol] yielded a benchmark concentration of 9 µM.

The compound `CC/C(=C(/CC)c1ccc(O)cc1)c1ccc(O)cc1` [Diethylstilbestrol] showed a benchmark concentration of 4.8 µM.

`O=C=NCCCCCCN=C=O` [1,6-Diisocyanatohexane] registered a benchmark concentration of 100 µM.

Compound `O=C(O)c1ccccc1` [Benzoic acid] came in with a benchmark concentration of 110 µM.

Take `Nc1ccc(Cc2ccc(N)cc2)cc1` [4,4'-Methylenedianiline]: the benchmark concentration worked out at 74 µM.

For the compound `Cc1c(C(=O)O)c(O)cc2c1C(=O)c1c(O)c([C@@H]3O[C@H](CO)[C@@H](O)[C@H](O)[C@H]3O)c(O)c(O)c1C2=O` [Carminic acid], the benchmark concentration is 13 µM.

Take `c1ccc2cc3ccccc3cc2c1` [Anthracene]: the benchmark concentration turned out to be 51 µM.

For `CCN(CC)C(=O)SCc1ccc(Cl)cc1` [Thiobencarb], the benchmark concentration turned out to be 113 ± 110 µM.

`CCCCCCCCCC(=O)O` [Decanoic acid] showed a benchmark concentration of 30 µM.

Compound `COc1ccc([N+](=O)[O-])cc1N` [2-Methoxy-5-nitroaniline] had a benchmark concentration of 90 µM.

Compound `CC(C)=CCC/C(C)=C/C=O` [3,7-Dimethyl-2,6-octadienal] came in with a benchmark concentration of 28 µM.

Consider `CC(C)(C)OOC(C)(C)CCC(C)(C)OOC(C)(C)C` [2,5-Dimethyl-2,5-di-(tert-butylperoxy)hexane], for which the benchmark concentration was found to be 60 µM.

`O=C(O)C(F)(F)C(F)(F)C(F)(F)C(F)(F)C(F)(F)C(F)(F)C(F)(F)F` [PFOA] came in with a benchmark concentration of 6.7 µM.

Turning to `ClC1=C(Cl)C2(Cl)C3C4CC(C5OC45)C3C1(Cl)C2(Cl)Cl` (centres undefined) [Endrin], the benchmark concentration was under 4.5 µM.

As for `CC(C)C(=O)OCC(C)(C)C(OC(=O)C(C)C)C(C)C` (centres undefined) [2,2,4-Trimethyl-1,3-pentanediol diisobutyrate], the benchmark concentration is 190 µM.

`O=c1c(O)c(-c2ccc(O)c(O)c2)oc2cc(O)cc(O)c12` [Quercetin]: the benchmark concentration stood at 110 µM.

With `OC(CCl)CCl` [1,3-Dichloro-2-propanol], the benchmark concentration is 75 µM.

The compound `OC(Cn1cncn1)(Cn1cncn1)c1ccc(F)cc1F` [Fluconazole] yielded a benchmark concentration of 90 µM.

`Cc1ccc(N)c(N)c1` [3,4-Diaminotoluene] displayed a benchmark concentration of 52 µM.

On to `CC(C)=CCCC(C)CCO` (centres undefined) [Citronellol], for which the benchmark concentration came out at 72 µM.

Compound `O=c1[nH]c(=O)[nH]c(=O)[nH]1` [Cyanuric acid] came in with a benchmark concentration of 91 µM.

As to `CCCCCCc1ccc(O)cc1O` [4-Hexylresorcinol], the benchmark concentration is under 4.5 µM.

In the case of `CC1(C)C(=O)N(Br)C(=O)N1Br` [1,3-Dibromo-5,5-dimethylhydantoin], the benchmark concentration is 93 µM.

Turning to `OCCC(F)(F)C(F)(F)C(F)(F)C(F)(F)C(F)(F)C(F)(F)C(F)(F)C(F)(F)F` [1,1,2,2-Tetrahydroperfluoro-1-decanol], the benchmark concentration stood at 95 µM.

For the compound `O=NO` [Sodium nitrite], the benchmark concentration amounted to 77 µM.

For `CCc1nc(N)nc(N)c1-c1ccc(Cl)cc1` [Pyrimethamine], the benchmark concentration was 49 µM.

As to `O=S(=O)(O)c1ccc(N=Nc2c(O)ccc3cc(S(=O)(=O)O)ccc23)cc1` [FD&C Yellow 6], the benchmark concentration worked out at 13 µM.

With `CC(C)C(=O)Nc1ccc([N+](=O)[O-])c(C(F)(F)F)c1` [Flutamide], the benchmark concentration was found to be 17 µM.

The compound `ClC(Cl)c1ccccc1` [Benzal chloride] had a benchmark concentration of 91 µM.

Regarding `Cc1cccc(C)c1N` [2,6-Dimethylaniline], the benchmark concentration amounted to 87 µM.

`CCOC(=O)C(C)(C)Oc1ccc(Cl)cc1` [Clofibrate] came in with a benchmark concentration of 130 µM.

For the compound `COc1cc(C=O)ccc1O` [4-Hydroxy-3-methoxybenzaldehyde], the benchmark concentration was 53 µM.

On to `Cl[C@H]1[C@H](Cl)[C@@H](Cl)[C@H](Cl)[C@@H](Cl)[C@@H]1Cl` [beta-Hexachlorocyclohexane], for which the benchmark concentration came to 32 µM.

`CSC(C)(C)/C=N/O` [Aldicarb oxime] displayed a benchmark concentration of 40 µM.

Take `Cc1cn(C2CC(N=[N+]=[N-])C(CO)O2)c(=O)[nH]c1=O` (centres undefined) [3-Azido-3-deoxythymidine]: the benchmark concentration turned out to be 72 µM.

As for `C1CC2OC2CC1C1CO1` (centres undefined) [4-Vinyl-1-cyclohexene dioxide], the benchmark concentration amounted to 35 µM.

In the case of `c1ccc2occc2c1` [2,3-Benzofuran], the benchmark concentration was 61 µM.

With `Cc1ccc(C(C)C)c(O)c1` [Thymol], the benchmark concentration was determined as 100 µM.

In turn, `Clc1cc(Cl)c(Cl)cc1Cl` [1,2,4,5-Tetrachlorobenzene] showed a benchmark concentration of 110 µM.

Compound `COC(=O)Nc1nc2ccccc2[nH]1` [Carbendazim] showed a benchmark concentration of under 4.5 µM.

For the compound `CCCCCCCCCCO` [1-Decanol], the benchmark concentration stood at 120 µM.

For `Cc1ccc([N+](=O)[O-])cc1C` [1,2-Dimethyl-4-nitrobenzene], the benchmark concentration was determined as 89 µM.

Compound `CC(C)COC(=O)c1ccccc1C(=O)OCC(C)C` [Diisobutyl phthalate] gave a benchmark concentration of 32 µM.

Compound `COC(=O)c1ccccc1N` [Methyl 2-aminobenzoate] came in with a benchmark concentration of 77 µM.

`C/C=C\c1ccc(O)c(OC)c1` [Isoeugenol] returned a benchmark concentration of 72 µM.

Compound `O=[N+]([O-])c1ccc(Cl)cc1` [1-Chloro-4-nitrobenzene] came in with a benchmark concentration of 120 µM.

Take `Cc1c(C)c2c(c(C)c1O)CCC(C)(COc1ccc(CC3SC(=O)NC3=O)cc1)O2` (centres undefined) [Troglitazone]: the benchmark concentration is 14 µM.

With `CN(C)C(=S)S` [Sodium dimethyldithiocarbamate], the benchmark concentration amounted to 49 µM.

With `CC(=O)c1ccccc1` [Acetophenone], the benchmark concentration came to 50 µM.

For the compound `Cc1occc(=O)c1O` [Maltol], the benchmark concentration worked out at 100 µM.

Compound `Nc1cc(Cl)cc(C(=O)O)c1Cl` [Chloramben] displayed a benchmark concentration of 110 µM.

Compound `COc1cc(-c2ccc(N)c(OC)c2)ccc1N` [3,3'-Dimethoxybenzidine dihydrochloride] registered a benchmark concentration of 7.6 µM.

As for `COC(=O)c1ccccc1C(=O)OC` [Dimethyl phthalate], the benchmark concentration was determined as 120 µM.

In turn, `O=[N+]([O-])c1ccccc1` [Nitrobenzene] yielded a benchmark concentration of 26 µM.

For the compound `Nc1ccc(C(=O)O)cc1` [4-Aminobenzoic acid], the benchmark concentration is 110 µM.

On to `Nc1ccc(S(=O)(=O)c2ccc(N)cc2)cc1` [Dapsone], for which the benchmark concentration was determined as 39 µM.

The compound `CC(=O)OCCC(C)C` [3-Methylbutyl acetate] had a benchmark concentration of 13 µM.

For the compound `COCCOCCO` [Diethylene glycol monomethyl ether], the benchmark concentration was 90 µM.

`Cc1ccccc1O` [o-Cresol] yielded a benchmark concentration of 130 µM.

Take `ClC(Cl)(Cl)c1ccccc1` [Benzotrichloride]: the benchmark concentration amounted to 45 µM.

Compound `CCN(CC)c1ccccc1` [N,N-Diethylaniline] gave a benchmark concentration of 77 µM.

In the case of `CCc1cccc(C)c1N(C(=O)CCl)C(C)COC` (centres undefined) [Metolachlor], the benchmark concentration worked out at 180 µM.

`Clc1cccc(Cl)c1Cl` [1,2,3-Trichlorobenzene] had a benchmark concentration of 32 µM.

For `C[C@]12CCC(=O)C=C1CC[C@@H]1[C@@H]2CC[C@]2(C)C(=O)CC[C@@H]12` [4-Androstene-3,17-dione], the benchmark concentration came to 34 µM.

For `Cc1ccc(N)cc1O` [5-Amino-2-methylphenol], the benchmark concentration came out at 5.3 µM.

`Clc1ccc(Cl)c(Cl)c1` [1,2,4-Trichlorobenzene] gave a benchmark concentration of 100 µM.

As for `Clc1cccc(Cl)c1` [1,3-Dichlorobenzene], the benchmark concentration came out at 160 µM.

Regarding `Nc1ccccc1N` [1,2-Phenylenediamine], the benchmark concentration was found to be 47 µM.

Compound `O=P(OCCCl)(OCCCl)OCCCl` [Tris(2-chloroethyl) phosphate] came in with a benchmark concentration of 150 µM.

As for `c1ccc2n[nH]nc2c1` [1,2,3-Benzotriazole], the benchmark concentration turned out to be 93 µM.

In the case of `CCCCC(CC)CO` (centres undefined) [2-Ethyl-1-hexanol], the benchmark concentration was 56 µM.

In turn, `CC(C)NCC(O)c1ccc(O)c(O)c1` (centres undefined) [Isoproterenol hydrochloride] came in with a benchmark concentration of 110 µM.

`Cc1ccc(N(C)C)cc1` [N,N,4-Trimethylaniline] gave a benchmark concentration of 39 µM.

`Oc1ccccc1Cl` [2-Chlorophenol]: the benchmark concentration came out at 97 µM.

`COC(=O)CCCCC(=O)OC` [Dimethyl adipate] had a benchmark concentration of 110 µM.
